Experimental data taken from BindingDB's records for doi:10.1021/jm010566d (University Center For Pharmacy, 2002).
pKi: −log10 of the molar value.

Assay: The binding affinity at 5-hydroxytryptamine 1D receptor was determined using [3H]5-CT

For `COc1cccc2c1N1CCN(C)C[C@@H]1c1ccccc1C2` [(+)-65-Methoxy-2-methyl-1,2,3,4,9,13b-hexahydro-2,4a-diaza-tribenzo[a,c,e]cycloheptene], the pKi was 5.83.
